# Assay results taken from US10597388B2, “Pyridazinone herbicides” (FMC CORPORATION, priority 2014, dated 2020).
# What was measured:
# Assay in all cases: Test D controlled growth environment herbicide test, pre- and postemergence
# Assay type in all cases: in vivo
# [1] = system: barley, spring (spring barley, Hordeum vulgare)
# Outline: (§1)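 Species sown in silt loam and sprayed preemergence, or grown in peat-based medium to 2–18 cm (1- to 4-leaf stage) and sprayed postemergence, with compounds in non-phytotoxic solvent plus surfactant. Visual injury scored versus controls after 14–21 d in a controlled environment, 0 (no effect) to 100 (complete control).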
# [2] = system: barley, winter (winter barley, Hordeum vulgare)
# Outline: as §1
# [3] = system: bluegrass (annual bluegrass, Poa annua)
# Outline: as §1
# [4] = system: bromegrass, downy (downy bromegrass, Bromus tectorum)
# Outline: as §1
# [5] = system: canarygrass (Phalaris minor)
# Outline: as §1
# [6] = system: chamomile (scentless chamomile, Matricaria inodora)
# Outline: as §1
# [7] = system: foxtail, green (green foxtail, Setaria viridis)
# Outline: as §1
# [8] = system: galium (catchweed bedstraw, Galium aparine)
# Outline: as §1
# [9] = system: kochia (Kochia scoparia)
# Outline: as §1
# [10] = system: lambsquarters (Chenopodium album)
# Outline: as §1
# [11] = system: mustard, wild (wild mustard, Sinapis arvensis)
# Outline: as §1
# [12] = system: oat, wild (wild oat, Avena fatua)
# Outline: as §1
# [13] = system: speedwell (bird's-eye speedwell, Veronica persica)
# Outline: as §1
# [14] = Postemergence, 31 g ai/ha, scale 0 to 100 (0 no effect, 100 complete control)
# [15] = Postemergence, 125 g ai/ha, visual rating on scale 0 (no effect) to 100 (complete control), 14 to 21 d
# [16] = Postemergence, 250 g ai/ha, scale 0 to 100 (0 no effect, 100 complete control)
# [17] = Preemergence, 62 g ai/ha, scale 0 to 100 (0 no effect, 100 complete control)
# [18] = Preemergence, 125 g ai/ha, scale 0 to 100 (0 no effect, 100 complete control)
# [19] = Preemergence, 250 g ai/ha, scale 0 to 100 (0 no effect, 100 complete control)
# [20] = postemergence, 62 g ai/ha, scale 0 to 100, 0 no effect, 100 complete control
smiles,measurement,setting,value
Cc1nn(C)c(=O)c(-c2c(C)sc3ccc(Cl)cc23)c1O [Compound 104],"Barley, Spring plant response rating",[1]; [14],0
same,"Plant response rating, Barley, Spring",[1]; [15],10
same,"Plant response rating, Barley, Spring",[1]; [16],15
same,"Plant response rating (scale of 0 to 100), Barley, Spring","[1]; Preemergence, 31 g ai/ha",0
same,"Plant response rating, Barley, Spring",[1]; [17],0
same,"Plant response rating, Barley, Spring",[1]; [18],5
same,"Plant response rating, Barley, Spring",[1]; [19],15
same,"Plant response rating, Barley, Spring",[1]; [20],10
same,"Barley, Winter plant response rating",[2]; [14],0
same,"Plant response rating, Barley, Winter",[2]; [15],10
same,"Plant response rating, Barley, Winter",[2]; [16],15
same,"Plant response rating (scale of 0 to 100), Barley, Winter","[2]; Preemergence, 31 g ai/ha",0
same,"Plant response rating, Barley, Winter",[2]; [17],0
same,"Plant response rating, Barley, Winter",[2]; [18],10
same,"Plant response rating, Barley, Winter",[2]; [19],20
same,"Plant response rating, Barley, Winter",[2]; [20],10
same,Bluegrass plant response rating,[3]; [14],10
same,"Plant response rating, Bluegrass",[3]; [15],20
same,"Plant response rating, Bluegrass",[3]; [16],30
same,"Plant response rating (scale of 0 to 100), Bluegrass","[3]; Preemergence, 31 g ai/ha",35
same,"Plant response rating, Bluegrass",[3]; [17],35
same,"Plant response rating, Bluegrass",[3]; [18],70
same,"Plant response rating, Bluegrass",[3]; [19],75
same,"Plant response rating, Bluegrass",[3]; [20],10
same,"Bromegrass, Downy plant response rating",[4]; [14],20
same,"Plant response rating, Bromegrass, Downy",[4]; [15],55
same,"Plant response rating, Bromegrass, Downy",[4]; [16],65
same,"Plant response rating (scale of 0 to 100), Bromegrass, Downy","[4]; Preemergence, 31 g ai/ha",0
same,"Plant response rating, Bromegrass, Downy",[4]; [17],65
same,"Plant response rating, Bromegrass, Downy",[4]; [18],65
same,"Plant response rating, Bromegrass, Downy",[4]; [19],85
same,"Plant response rating, Bromegrass, Downy",[4]; [20],30
same,Canarygrass plant response rating,[5]; [14],45
same,"Plant response rating, Canarygrass",[5]; [15],80
same,"Plant response rating, Canarygrass",[5]; [16],85
same,"Plant response rating (scale of 0 to 100), Canarygrass","[5]; Preemergence, 31 g ai/ha",65
same,"Plant response rating (scale of 0 to 100), Canarygrass","[5]; Preemergence, 62 g ai/ha",85
same,"Plant response rating, Canarygrass",[5]; [18],95
same,"Plant response rating, Canarygrass",[5]; [19],100
same,"Plant response rating, Canarygrass",[5]; [20],65
same,Chamomile plant response rating,[6]; [14],80
same,"Plant response rating, Chamomile",[6]; [15],95
same,"Plant response rating, Chamomile",[6]; [16],100
same,"Plant response rating, Chamomile",[6]; [20],85
same,"Foxtail, Green plant response rating",[7]; [14],30
same,"Plant response rating, Foxtail, Green",[7]; [15],85
same,"Plant response rating, Foxtail, Green",[7]; [16],90
same,"Plant response rating (scale of 0 to 100), Foxtail, Green","[7]; Preemergence, 31 g ai/ha",20
same,"Plant response rating (scale of 0 to 100), Foxtail, Green","[7]; Preemergence, 62 g ai/ha",70
same,"Plant response rating, Foxtail, Green",[7]; [18],100
same,"Plant response rating, Foxtail, Green",[7]; [19],100
same,"Plant response rating, Foxtail, Green",[7]; [20],70
same,Galium plant response rating,[8]; [14],85
same,"Plant response rating, Galium",[8]; [15],100
same,"Plant response rating, Galium",[8]; [16],100
same,"Plant response rating (scale of 0 to 100), Galium","[8]; Preemergence, 31 g ai/ha",65
same,"Plant response rating (scale of 0 to 100), Galium","[8]; Preemergence, 62 g ai/ha",95
same,"Plant response rating, Galium",[8]; [18],100
same,"Plant response rating, Galium",[8]; [19],100
same,"Plant response rating, Galium",[8]; [20],90
same,Kochia plant response rating,[9]; [14],95
same,"Plant response rating, Kochia",[9]; [15],100
same,"Plant response rating, Kochia",[9]; [16],100
same,"Plant response rating (scale of 0 to 100), Kochia","[9]; Preemergence, 31 g ai/ha",30
same,"Plant response rating (scale of 0 to 100), Kochia","[9]; Preemergence, 62 g ai/ha",75
same,"Plant response rating, Kochia",[9]; [18],95
same,"Plant response rating, Kochia",[9]; [19],100
same,"Plant response rating, Kochia",[9]; [20],95
same,Lambsquarters plant response rating,[10]; [14],95
same,"Plant response rating, Lambsquarters",[10]; [15],100
same,"Plant response rating, Lambsquarters",[10]; [16],100
same,"Plant response rating (scale of 0 to 100), Lambsquarters","[10]; Preemergence, 31 g ai/ha",75
same,"Plant response rating (scale of 0 to 100), Lambsquarters","[10]; Preemergence, 62 g ai/ha",100
same,"Plant response rating, Lambsquarters",[10]; [18],100
same,"Plant response rating, Lambsquarters",[10]; [19],100
same,"Plant response rating, Lambsquarters",[10]; [20],100
same,"Mustard, Wild plant response rating",[11]; [14],70
same,"Plant response rating, Mustard, Wild",[11]; [15],85
same,"Plant response rating, Mustard, Wild",[11]; [16],90
same,"Plant response rating (scale of 0 to 100), Mustard, Wild","[11]; Preemergence, 31 g ai/ha",10
same,"Plant response rating (scale of 0 to 100), Mustard, Wild","[11]; Preemergence, 62 g ai/ha",70
same,"Plant response rating, Mustard, Wild",[11]; [18],75
same,"Plant response rating, Mustard, Wild",[11]; [19],95
same,"Plant response rating, Mustard, Wild",[11]; [20],75
same,"Oat, Wild plant response rating",[12]; [14],85
same,"Plant response rating, Oat, Wild",[12]; [15],95
same,"Plant response rating, Oat, Wild",[12]; [16],100
same,"Plant response rating (scale of 0 to 100), Oat, Wild","[12]; Preemergence, 31 g ai/ha",75
same,"Plant response rating (scale of 0 to 100), Oat, Wild","[12]; Preemergence, 62 g ai/ha",80
same,"Plant response rating, Oat, Wild",[12]; [18],80
same,"Plant response rating, Oat, Wild",[12]; [19],100
same,"Plant response rating, Oat, Wild",[12]; [20],90
same,Speedwell plant response rating,[13]; [14],30
same,"Plant response rating, Speedwell",[13]; [15],55
same,"Plant response rating, Speedwell",[13]; [16],70
same,"Plant response rating, Speedwell",[13]; [20],35
